Source: patent US11873295B2, “Allosteric chromenone inhibitors of phosphoinositide 3-kinase (PI3K) for the treatment of disease” (Petra Pharma Corporation, priority 2021, dated 2024)

What was measured:
[1] = biological target: T1, human full length PIK3KA H1047R mutant (p110α/p85α complex) (Homo sapiens, UniProt P42336, H1047R); assay: PI3K-alpha kinase (PIK3CA) biochemical activity, H1047R mutant, ADP-Glo; conditions: PI3K-α (PIK3CA) biochemical, H1047R mutant, Soy PI lipid substrate
T1 construct: Recombinant, catalytically active human full length PIK3KA Wild-type and H1047R mutant were purchased as 1:1 complex; 6xHis (N); purchased EMD Millipore Sigma 14-792M
T1 sequence (P42336 whole entry H1047R): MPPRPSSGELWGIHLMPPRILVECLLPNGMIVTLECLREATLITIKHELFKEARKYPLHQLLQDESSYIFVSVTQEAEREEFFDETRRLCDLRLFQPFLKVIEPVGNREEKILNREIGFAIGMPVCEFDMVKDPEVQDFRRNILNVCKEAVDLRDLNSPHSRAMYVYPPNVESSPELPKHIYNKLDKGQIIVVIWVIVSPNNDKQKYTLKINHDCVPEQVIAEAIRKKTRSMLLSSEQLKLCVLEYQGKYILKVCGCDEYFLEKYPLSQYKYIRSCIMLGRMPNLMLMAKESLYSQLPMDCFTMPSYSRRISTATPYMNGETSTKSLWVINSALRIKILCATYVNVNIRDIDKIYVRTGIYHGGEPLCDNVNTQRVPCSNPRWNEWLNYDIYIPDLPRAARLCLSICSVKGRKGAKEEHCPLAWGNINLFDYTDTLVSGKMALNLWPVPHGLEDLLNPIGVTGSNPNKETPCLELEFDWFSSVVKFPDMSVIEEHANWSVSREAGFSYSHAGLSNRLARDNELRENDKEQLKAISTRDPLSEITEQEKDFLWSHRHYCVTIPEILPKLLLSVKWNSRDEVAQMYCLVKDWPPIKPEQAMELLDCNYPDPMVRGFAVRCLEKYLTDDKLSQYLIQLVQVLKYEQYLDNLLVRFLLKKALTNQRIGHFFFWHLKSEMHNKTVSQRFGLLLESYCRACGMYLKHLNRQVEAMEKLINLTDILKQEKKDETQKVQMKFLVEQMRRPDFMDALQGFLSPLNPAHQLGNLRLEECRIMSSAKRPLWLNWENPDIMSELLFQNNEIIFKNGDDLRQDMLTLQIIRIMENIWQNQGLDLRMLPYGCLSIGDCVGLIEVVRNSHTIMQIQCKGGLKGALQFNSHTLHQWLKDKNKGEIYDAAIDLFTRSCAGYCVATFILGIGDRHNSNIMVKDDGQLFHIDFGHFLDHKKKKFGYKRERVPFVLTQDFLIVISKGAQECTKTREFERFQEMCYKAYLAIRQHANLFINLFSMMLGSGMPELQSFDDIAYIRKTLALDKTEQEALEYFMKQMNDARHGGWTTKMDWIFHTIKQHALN
T1 sequence (P27986 whole entry partner): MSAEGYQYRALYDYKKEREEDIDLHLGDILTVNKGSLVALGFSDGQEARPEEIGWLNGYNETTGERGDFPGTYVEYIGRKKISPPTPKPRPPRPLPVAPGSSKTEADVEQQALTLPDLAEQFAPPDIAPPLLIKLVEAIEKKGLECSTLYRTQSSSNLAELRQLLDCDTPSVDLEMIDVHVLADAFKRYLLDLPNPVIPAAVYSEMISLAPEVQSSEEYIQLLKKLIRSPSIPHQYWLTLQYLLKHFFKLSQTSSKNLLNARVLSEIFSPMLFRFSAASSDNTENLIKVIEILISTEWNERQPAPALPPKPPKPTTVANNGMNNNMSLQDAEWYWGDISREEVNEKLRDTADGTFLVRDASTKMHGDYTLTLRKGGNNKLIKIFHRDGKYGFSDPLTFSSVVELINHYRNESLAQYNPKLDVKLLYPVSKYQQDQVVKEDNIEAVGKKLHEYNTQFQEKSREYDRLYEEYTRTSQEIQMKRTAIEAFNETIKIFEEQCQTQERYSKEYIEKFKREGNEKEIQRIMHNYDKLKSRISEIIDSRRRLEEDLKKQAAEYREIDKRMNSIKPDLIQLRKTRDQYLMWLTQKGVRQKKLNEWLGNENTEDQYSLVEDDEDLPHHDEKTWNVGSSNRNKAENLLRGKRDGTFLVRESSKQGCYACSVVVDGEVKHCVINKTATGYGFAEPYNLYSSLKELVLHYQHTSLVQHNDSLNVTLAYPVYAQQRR
In short: (§1)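 ADP formation, read by ADP-Glo, is run to about 10% ATP turnover at 27 °C with 20 μM ATP and 50 μM PIP2diC8 or soy PI. WT or H1047R p110α/p85α (1–5 nM) is pre-incubated 1 h with compound in HEPES pH 7.4/MgCl2/Triton buffer, 1% DMSO. 10-point 1:3 series, logistic IC50 versus no-enzyme and DMSO controls.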

[2] = test system: PI3K-α (PIK3CA) in MDA-MB-453 cells; assay: PI3K-alpha kinase (PIK3CA) activity in vitro cell based assay, MDA-MB-453 cells, AlphaLisa SureFire; conditions: 0% FBS, 3 hours treatment, relative IC50
Experimental: PI3K-Alpha Kinase (PIK3CA) Activity In Vitro Cell Based Assay and Determining IC50 Values for Inhibitors
The MDA-MB-453 (ATCC-HTB-131) cell line was obtained from the American Type Culture Collection (Manassas, VA). Cells were maintained in Dulbecco's Modified Eagle Media (DMEM, Gibco 11965-092) supplemented with 10% Fetal Bovine Serum, heat inactivated (FBS HI, Gibco 10082-147), 1× non-essential amino acids (NEAA, Gibco 11140-050), and 1 mM sodium pyruvate (Gibco 11360-070). Cultures were maintained in a humidified incubator at 37° C. under 5% CO2/95% air.
For compound testing in 0% FBS, MDA-MB-453 cells were seeded at a density of 1.5×10^4 cells per well in white 384-well plates in 20 μl of Minimum Essential Media (MEM) assay media with 1×NEAA, 1 mM sodium pyruvate, and 1 μg/mL human insulin (Sigma I9278). Compounds dissolved in 10 mM stock solutions in DMSO were serially diluted 1:3 in DMSO to generate a 10-point dilution series and plated using an acoustic liquid handler system (Echo 550 Series Liquid Handler, Labcyte). A 5× intermediate compound dilution plate in MEM with 1×NEAA and 1 mM sodium pyruvate (150 μM starting compound concentration in 1.5% DMSO) was then prepared. Five μl of the intermediate serially diluted compounds were added to the cell plate to final concentrations ranging from […] in 0.3% DMSO. 0.3% DMSO alone was used to establish the maximum (MAX) signal and GDC-0032 at a final concentration of 1 μM was used as a reference compound for the minimum (MIN) signal. After 3 hours treatment, the medium was removed, and the cells lysed in 10 μL of 1× SureFire Lysis buffer with shaking for 10 minutes at room temperature. The Acceptor Mix (Reaction Buffer 1+Reaction Buffer 2+Activation Buffer+SureFire Ultra Acceptor Beads) was prepared by diluting Activation buffer 25-fold in combined Reaction Buffer 1 and Reaction Buffer 2. The Acceptor beads were diluted 50-fold in the combined Reaction Buffers. Five μL of Acceptor Mix was added to each well, the plate was sealed and covered with foil and incubated for 1 hour at room temperature. The Donor Mix (dilution buffer+SureFire Ultra Donor Beads) was prepared by diluting Donor Beads 50-fold in dilution buffer. Five μL of the Donor Mix was added to each well and the plate sealed and covered with foil and incubated for 1 hour at room temperature in the dark. The plates were read on a Neo2 plate reader instrument from Biotek using standard AlphaLisa settings. Compounds were tested in duplicate and the average % inhibition at each compound concentration was used to generate a single dose response curve. The data were processed using the Genedata-Screener tool. Relative IC50 values were determined using luminescence units by calculating percent inhibition with respect to the in-plate “MIN” (GDC-0032 reference control) and “MAX” (DMSO) controls. The data was analyzed using a 4-parameter nonlinear logistic equation (four-parameter logistic concentration-response curve): Y=bottom+[(top−bottom)/1+(X/IC50)slope] where Y=% inhibition, X=concentration of inhibitor, bottom=minimum value of y attained by curve-fit, top=maximum value of y attained by curve-fit and slope=steepness of curve at the IC50. % Inhibition=[(signal at X−median Min)/(median Max−median Min)]×100 IC50: concentration of compound that reduces a given response (ligand binding, enzyme response) by 50%. Relative IC50: concentration giving half the compound's maximum response.
For IC50 values shown in Table B, “A” means IC50<50 nM; “B” means IC50 ranging between 50 nM and 100 nM; “C” means IC50 ranging between 100 nM and 500 nM; “D” means IC50>500 nM.

[3] = biological target: T2, human full length PIK3KA Wild-type (p110α/p85α complex) (Homo sapiens, UniProt P42336); assay: PI3K-alpha kinase (PIK3CA) biochemical activity, wild-type, ADP-Glo; conditions: PI3K-α (PIK3CA) biochemical, Soy PI lipid substrate
T2 construct: Recombinant, catalytically active human full length PIK3KA Wild-type and H1047R mutant were purchased as 1:1 complex; 6xHis (N); purchased EMD Millipore Sigma 14-602M
In short: as §1

Row | Compound | IC50 [1] | IC50 ([2]; Homo sapiens, MDA-MB-453, 3 h) | IC50 [3] | IC50 [2]
1 | Cc1cc([C@@H](C)Nc2ccc(C)nc2C(=O)O)c2oc(-c3ccc(F)c(F)c3)c(C)c(=O)c2c1 [Example 124, 3-[[(1R)-1-[2-(3,4-Difluorophenyl)-3,6-dimethyl-4-oxo-chromen-8-yl]ethyl]amino]-6-methyl-pyridine-2-carboxylic acid] | < 500 nM | < 50 nM | 1000 to 5000 nM | –
2 | Cc1cc([C@@H](C)Nc2ccccc2C(=O)O)c2oc(-c3ccc(F)c(F)c3)cc(=O)c2c1 [Example 63, 2-[[(1R)-1-[2-(3,4-DifIuorophenyl)-6-methyl-4-oxo-chromen-8-yl]ethyl]amino]benzoic acid 2,2,2-trifluoroacetic acid] | < 500 nM | < 50 nM | 1000 to 5000 nM | –
3 | Cc1cc([C@@H](C)Nc2ccc(Cl)nc2C(=O)O)c2oc(-c3cccc(C#N)c3)c(C)c(=O)c2c1 [Example 121, 6-Chloro-3-[[(1R)-1-[2-(3-cyanophenyl)-3,6-dimethyl-4-oxo-chromen-8-yl]ethyl]amino]pyridine-2-carboxylic acid] | < 500 nM | – | 500 to 1000 nM | < 50 nM
4 | Cc1cc([C@@H](C)Nc2ccccc2C(=O)O)c2oc(-c3cccc(C(C)(C)C(N)=O)c3)c(C)c(=O)c2c1 [Example 118, 2-[[(1R)-1-[2-[3-(2-Amino-1,1-dimethyl-2-oxo-ethyl)phenyl]-3,6-dimethyl-4-oxo-chromen-8-yl]ethyl]amino]benzoic acid 2,2,2-trifluoroacetic acid] | < 500 nM | 100 to 500 nM | 1000 to 5000 nM | –
5 | Cc1cc([C@@H](C)Nc2cccnc2C(=O)O)c2oc(-c3ccc(F)c(F)c3)c(C)c(=O)c2c1 [Example 120, 3-[[(1R)-1-[2-(3,4-Difluorophenyl)-3,6-dimethyl-4-oxo-chromen-8-yl]ethyl]amino]pyridine-2-carboxylic acid] | 1000 to 5000 nM | 50 to 100 nM | > 10000 nM | –
6 | Cc1cc(C(C)Nc2cccc(F)c2C(=O)O)c2oc(-c3ccccc3F)c(C)c(=O)c2c1 (single isomer, unassigned; isomer 2) [Example 104, 2-Fluoro-6-[1-[2-(2-fluorophenyl)-3,6-dimethyl-4-oxo-chromen-8-yl]ethylamino]benzoic acid, Isomer 2] | 500 to 1000 nM | 100 to 500 nM | > 10000 nM | –
7 | Cc1cc([C@@H](C)Nc2ccc(Cl)cc2C(=O)O)c2oc(-c3ccccc3)c(C)c(=O)c2c1 [Example 41, 5-Chloro-2-[[(1R)-1-(3,6-dimethyl-4-oxo-2-phenyl-chromen-8-yl)ethyl]amino]benzoic acid] | < 500 nM | < 50 nM | 1000 to 5000 nM | –
8 | Cc1cc([C@@H](C)Nc2ccc(C)nc2C(=O)O)c2oc(-c3ccccc3)c(C(F)(F)F)c(=O)c2c1 [Example 116, 6-Methyl-3-[[(1R)-1-[6-methyl-4-oxo-2-phenyl-3-(trifluoromethyl)-chromen-8-yl]ethyl]amino]pyridine-2-carboxylic acid] | – | < 50 nM | – | –

Second part, the compound after the results:

Row | IC50 [1] | IC50 ([2]; Homo sapiens, MDA-MB-453, 3 h) | IC50 [3] | IC50 [2] | Compound
9 | < 500 nM | < 50 nM | 500 to 1000 nM | – | COc1ccc(N[C@H](C)c2cc(C)cc3c(=O)c(C)c(-c4ccccc4)oc23)c(C(=O)O)n1 [Example 135, 6-Methoxy-3-[[(1R)-1-(3,6-dimethyl-4-oxo-2-phenyl-chromen-8-yl)ethyl]amino]pyridine-2-carboxylic acid 2,2,2-trifluoroacetic acid]
10 | 1000 to 5000 nM | 50 to 100 nM | > 10000 nM | – | Cc1cc([C@@H](C)Nc2cccnc2C(=O)O)c2oc(-c3ccccc3F)c(C)c(=O)c2c1 [Example 142, 3-[[(1R)-1-[2-(2-Fluorophenyl)-3,6-dimethyl-4-oxo-chromen-8-yl]ethyl]amino]pyridine-2-carboxylic acid]
11 | < 500 nM | 50 to 100 nM | 1000 to 5000 nM | – | Cc1cc([C@@H](C)Nc2ccc(C(F)(F)F)cc2C(=O)O)c2oc(-c3cccc(C#N)c3)c(C)c(=O)c2c1 [Example 128, 2-[[(1R)-1-[2-(3-Cyanophenyl)-3,6-dimethyl-4-oxo-chromen-8-yl]ethyl]amino]-5-(trifluoromethyl)benzoic acid]
12 | < 500 nM | < 50 nM | 1000 to 5000 nM | – | Cc1cc([C@@H](C)Nc2ccc(C(F)(F)F)nc2C(=O)O)c2oc(-c3cccc(C#N)c3)c(C)c(=O)c2c1 [Example 126, 3-[[(1R)-1-[2-(3-Cyanophenyl)-3,6-dimethyl-4-oxo-chromen-8-yl]ethyl]amino]-6-(trifluoromethyl)pyridine-2-carboxylic acid]
13 | < 500 nM | < 50 nM | > 10000 nM | – | CNC(=O)c1cccc(-c2oc3c([C@@H](C)Nc4ccccc4C(=O)O)cc(C)cc3c(=O)c2C)c1 [Example 152, 2-[[(1R)-1-[3,6-Dimethyl-2-[3-(methylcarbamoyl)phenyl]-4-oxo-chromen-8-yl]ethyl]amino]benzoic acid]
14 | – | < 50 nM | – | – | Cc1cc([C@@H](C)Nc2ccccc2C(=O)O)c2oc(-c3cccc(C#N)c3F)c(C)c(=O)c2c1 [Example 170, 2-[[(1R)-1-[2-(3-Cyano-2-fluoro-phenyl)-3,6-dimethyl-4-oxo-chromen-8-yl]ethyl]amino]benzoic acid]
15 | – | < 50 nM | – | – | Cc1cc([C@@H](C)Nc2ccccc2C(=O)O)c2oc(-c3cccc(-n4cc(C#N)cn4)c3)c(C)c(=O)c2c1 [Example 178, 2-[[(1R)-1-[2-[3-(4-Cyanopyrazol-1-yl)phenyl]-3,6-dimethyl-4-oxo-chromen-8-yl]ethyl]amino]benzoic acid 2,2,2-trifluoroacetic acid]
16 | – | < 50 nM | – | – | Cc1cc([C@@H](C)Nc2ccccc2C(=O)O)c2oc(-c3ccc(-c4ccccc4C#N)cc3)c(C)c(=O)c2c1 [Example 177, 2-[[(1R)-1-[2-[4-(2-Cyanophenyl)phenyl]-3,6-dimethyl-4-oxo-chromen-8-yl]ethyl]amino]benzoic acid]
17 | – | 50 to 100 nM | – | – | Cc1cc([C@@H](C)Nc2ccccc2C(=O)O)c2oc(-c3cccc(-c4ccc(C#N)cc4)c3)c(C)c(=O)c2c1 [Example 175, 2-[[(1R)-1-[2-[3-(4-Cyanophenyl)phenyl]-3,6-dimethyl-4-oxo-chromen-8-yl]ethyl]amino]benzoic acid]
18 | – | 50 to 100 nM | – | – | Cc1cc([C@@H](C)Nc2ccccc2C(=O)O)c2oc(-c3ccc(-c4cccc(C#N)c4)cc3)c(C)c(=O)c2c1 [Example 173, 2-[[(1R)-1-[2-[4-(3-Cyanophenyl)phenyl]-3,6-dimethyl-4-oxo-chromen-8-yl]ethyl]amino]benzoic acid]
19 | – | 50 to 100 nM | – | – | Cc1cc([C@@H](C)Nc2ccccc2C(=O)O)c2oc(-c3cccc(-c4cccc(C#N)c4)c3)c(C)c(=O)c2c1 [Example 176, 2-[[(1R)-1-[2-[3-(3-Cyanophenyl)phenyl]-3,6-dimethyl-4-oxo-chromen-8-yl]ethyl]amino]benzoic acid]
